For assay [1], the target named is T1, Thioesterase GrsT homolog tycF (Brevibacillus brevis) (UniProt O30412).
T1 sequence (whole entry): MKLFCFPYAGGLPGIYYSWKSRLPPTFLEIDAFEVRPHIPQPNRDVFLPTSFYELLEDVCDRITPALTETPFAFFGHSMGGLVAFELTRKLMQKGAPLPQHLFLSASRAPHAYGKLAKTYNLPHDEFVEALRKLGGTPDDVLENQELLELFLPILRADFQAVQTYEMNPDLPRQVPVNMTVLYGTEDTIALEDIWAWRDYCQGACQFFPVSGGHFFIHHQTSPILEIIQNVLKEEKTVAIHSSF
Put plainly: Apparent kinetic constant (Kcat) for tyrocidine thioesterase amplified from Bacillus brevis (ATCC8185).

Assay [2] concerns the target T1, Thioesterase GrsT homolog tycF (Brevibacillus brevis). Put plainly: Catalytic efficiency (Kcat/Km) was determined. More on the design: unit not given here.

Molecules are shown by their SMILES. Where a SMILES comes first, the peptide text is derived from it. [ ]: non-standard residue; d: D form. The star is where a group is joined. SCH2CH2NHAc = CC(=O)NCCS*; Orn = NCCC[C@H](N)C(=O)O

The results in this text go back to ChEMBL document CHEMBL1135258, “Substrate spectrum of tyrocidine thioesterase probed with randomized peptide N-acetylcysteamine thioesters” (Bioorg Med Chem Lett, 2002).

As to `CC(=O)NCCSC(=O)[C@H](CC(C)C)NC(=O)[C@H](CCCN)NC(=O)[C@@H](NC(=O)[C@H](Cc1ccc(O)cc1)NC(=O)[C@H](CCC(N)=O)NC(=O)[C@H](CC(N)=O)NC(=O)[C@H](CCC(=O)O)NC(=O)[C@H](Cc1ccccc1)NC(=O)[C@@H]1CCCN1C(=O)[C@H](N)Cc1ccccc1)C(C)C`, the k cat in assay [1] worked out at 0.11 s⁻¹. In addition, the Ratio in assay [2] amounted to 0.57.

Take `CC(=O)NCCSC(=O)[C@H](CC(C)C)NC(=O)[C@H](CCCN)NC(=O)[C@@H](NC(=O)[C@H](Cc1ccc(O)cc1)NC(=O)[C@@H](NC(=O)[C@H](CC(N)=O)NC(=O)[C@@H](Cc1ccccc1)NC(=O)[C@H](Cc1ccccc1)NC(=O)[C@@H]1CCCN1C(=O)[C@H](N)Cc1ccccc1)C(C)C)C(C)C`: the k cat in assay [1] was determined as 0.16 s⁻¹. The Ratio in assay [2] came out at 0.18.

For `CC(=O)NCCSC(=O)[C@H](CC(C)C)NC(=O)[C@H](CCCN)NC(=O)[C@@H](NC(=O)[C@H](Cc1ccc(O)cc1)NC(=O)[C@H](CCC(N)=O)NC(=O)[C@@H](NC(=O)[C@@H](Cc1ccccc1)NC(=O)[C@H](Cc1ccccc1)NC(=O)[C@@H]1CCCN1C(=O)[C@H](N)Cc1ccccc1)C(C)C)C(C)C`, the k cat in assay [1] is 0.12 s⁻¹. Besides, the Ratio in assay [2] turned out to be 0.29.

On to `CC(=O)NCCSC(=O)[C@H](CC(C)C)NC(=O)[C@H](CCCN)NC(=O)[C@@H](NC(=O)[C@H](Cc1ccc(O)cc1)NC(=O)[C@H](CCC(N)=O)NC(=O)[C@H](CC(N)=O)NC(=O)[C@@H](Cc1ccccc1)NC(=O)[C@H](Cc1ccccc1)NC(=O)[C@H](C)NC(=O)[C@H](N)Cc1ccccc1)C(C)C` (H-[dF]AF[dF]NQYV[Orn]L-SCH2CH2NHAc), for which the k cat in assay [1] worked out at 0.117 s⁻¹. Further, the Ratio in assay [2] was 0.23.

On to `CC(=O)NCCSC(=O)[C@H](CC(C)C)NC(=O)[C@H](CCCN)NC(=O)[C@@H](NC(=O)[C@H](Cc1ccc(O)cc1)NC(=O)[C@H](CCC(N)=O)NC(=O)[C@H](CC(N)=O)NC(=O)[C@@H](NC(=O)[C@H](Cc1ccccc1)NC(=O)[C@@H]1CCCN1C(=O)[C@H](N)Cc1ccccc1)C(C)C)C(C)C`, for which the k cat in assay [1] was determined as 0.45 s⁻¹. The Ratio in assay [2] came out at 0.19.

In the case of `CC(=O)NCCSC(=O)[C@H](CC(C)C)NC(=O)[C@H](CCCN)NC(=O)[C@@H](NC(=O)[C@H](Cc1ccc(O)cc1)NC(=O)[C@H](CCC(N)=O)NC(=O)[C@H](CC(N)=O)NC(=O)[C@H](CCC(N)=O)NC(=O)[C@H](Cc1ccccc1)NC(=O)[C@@H]1CCCN1C(=O)[C@H](N)Cc1ccccc1)C(C)C`, the k cat in assay [1] turned out to be 0.117 s⁻¹. For the same compound, the Ratio in assay [2] was 0.43.

In the case of `CC(=O)NCCSC(=O)[C@H](CC(C)C)NC(=O)[C@H](CCCN)NC(=O)[C@@H](NC(=O)[C@H](Cc1ccc(O)cc1)NC(=O)[C@H](CCC(N)=O)NC(=O)[C@H](CC(N)=O)NC(=O)[C@H](CC(C)C)NC(=O)[C@H](Cc1ccccc1)NC(=O)[C@@H]1CCCN1C(=O)[C@H](N)Cc1ccccc1)C(C)C`, the k cat in assay [1] amounted to 0.138 s⁻¹. In addition, the Ratio in assay [2] stood at 0.28.

For the compound `CC(=O)NCCSC(=O)[C@H](CC(C)C)NC(=O)[C@H](CCCN)NC(=O)[C@H](CCCN=C(N)N)NC(=O)[C@H](Cc1ccc(O)cc1)NC(=O)[C@H](CCC(N)=O)NC(=O)[C@H](CC(N)=O)NC(=O)[C@@H](Cc1ccccc1)NC(=O)[C@H](Cc1ccccc1)NC(=O)[C@@H]1CCCN1C(=O)[C@H](N)Cc1ccccc1`, the k cat in assay [1] was 0.15 s⁻¹. For the same compound, the Ratio in assay [2] is 0.28.

Regarding `CC(=O)NCCSC(=O)[C@H](CC(C)C)NC(=O)[C@H](CCCN)NC(=O)[C@@H](NC(=O)[C@H](Cc1ccc(O)cc1)NC(=O)[C@H](CCC(N)=O)NC(=O)[C@H](CC(N)=O)NC(=O)[C@@H](Cc1ccccc1)NC(=O)[C@H](Cc1ccccc1)NC(=O)[C@H](CC(N)=O)NC(=O)[C@H](N)Cc1ccccc1)C(C)C`, the k cat in assay [1] is 0.117 s⁻¹. For the same compound, the Ratio in assay [2] came to 0.084.

As for `CC(=O)NCCSC(=O)[C@H](CC(C)C)NC(=O)[C@H](CCCN)NC(=O)[C@@H](NC(=O)[C@H](Cc1ccc(O)cc1)NC(=O)[C@H](CCC(N)=O)NC(=O)[C@H](CC(N)=O)NC(=O)[C@@H](Cc1ccccc1)NC(=O)[C@H](CC(N)=O)NC(=O)[C@@H]1CCCN1C(=O)[C@H](N)Cc1ccccc1)C(C)C`, the k cat in assay [1] came to 0.233 s⁻¹. Besides, the Ratio in assay [2] came to 0.083.
